One may read the IC50 as the concentration needed to halve the response being measured.

The test deals with T1, hITK enzyme (FLAG-tagged full-length hITK) (Homo sapiens, UniProt Q08881).
T1 construct: strongly expressing FLAG-tagged full-length hITK in Sf9 cells; FLAG; made in house; host or cells: Sf9 insect cells (ITK); Escherichia coli (GST-SLP76 substrate)
T1 sequence (Q08881 1-620): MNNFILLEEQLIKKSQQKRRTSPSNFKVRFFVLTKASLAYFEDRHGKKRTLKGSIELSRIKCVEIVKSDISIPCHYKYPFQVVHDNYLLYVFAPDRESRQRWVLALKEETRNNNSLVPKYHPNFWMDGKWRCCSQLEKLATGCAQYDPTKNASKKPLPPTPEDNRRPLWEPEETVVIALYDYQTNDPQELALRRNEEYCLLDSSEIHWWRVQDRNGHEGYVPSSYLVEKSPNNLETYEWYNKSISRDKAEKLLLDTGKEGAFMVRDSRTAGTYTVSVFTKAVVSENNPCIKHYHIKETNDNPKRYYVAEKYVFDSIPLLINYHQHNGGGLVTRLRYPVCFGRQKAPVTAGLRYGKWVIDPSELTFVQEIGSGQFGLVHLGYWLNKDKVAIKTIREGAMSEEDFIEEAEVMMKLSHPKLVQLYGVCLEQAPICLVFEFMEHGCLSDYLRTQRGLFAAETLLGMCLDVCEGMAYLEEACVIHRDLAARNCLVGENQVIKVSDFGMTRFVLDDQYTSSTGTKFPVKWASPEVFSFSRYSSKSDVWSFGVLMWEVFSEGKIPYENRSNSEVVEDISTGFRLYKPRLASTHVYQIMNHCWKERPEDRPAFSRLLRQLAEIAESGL
The test can be described thus: ITK inhibitory activity (HTRF kinase assay, biotinylated GST-SLP76 substrate). In kind it is biochemical. Conditions: IC50 calculated from the 2 test compound concentrations sandwiching 50% ITK inhibitory rate. Summed up: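 Sf9-expressed hITK (50 ng/mL enzyme solution) reacted 10 min at RT in MOPS pH 7.0, 10 mmol/L MgCl2, 1 mmol/L DTT with E. coli SLP76 aa95–175 substrate; substrate solution held 100 µmol/L ATP (6 µmol/L for selected compounds). HTRF 665/620 ratio, blank-corrected; IC50 interpolated between two concentrations bracketing 50% inhibition.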
For the compound `CCN(C(=O)CN1C[C@@H](C)OCC1=O)c1ccc2cc(-c3n[nH]c4c3CCC(C)(C)C4)[nH]c2c1` [Example 282], the IC50 is 2 nM.

With `CN(CC(=O)N(C)c1ccc2cc(-c3n[nH]c4c3CCC(C)(C)C4)[nH]c2c1)C(=O)C1CC1` [Example 200], the IC50 is 1 nM. The value for `CN(C(=O)[C@@H](O)C1CCCCC1)c1ccc2cc(-c3n[nH]c4c3CCC(C)(C)C4)[nH]c2c1` [Example 78] was 7 nM. The value for `CC1(C)CCc2c(-c3cc4ccc(N5CCCCC5=O)cc4[nH]3)n[nH]c2C1` [Example 211] was 33 nM; that for `CN(C(=O)OC1CCCCC1)c1ccc2cc(-c3n[nH]c4c3CCC(C)(C)C4)[nH]c2c1` [Example 102] was 117 nM; that for `CON(C)C(=O)c1ccc2[nH]c(-c3n[nH]c4c3CCC(C)(C)C4)cc2c1` [Example 321] was 48 nM. For `CC1(C)CCc2c(-c3cc4cc(C(=O)NCC(=O)O)ccc4[nH]3)n[nH]c2C1` [Example 306], the half-maximal inhibitory concentration (IC50) is 27 nM. The value for `CN(C(=O)OCc1ccccc1)c1ccc2cc(-c3n[nH]c4c3CC(OCc3ccccc3)C(C)(C)C4)[nH]c2c1` (stereo not shown) [Example 363] was 485 nM; that for `CC1(C)CCc2c(-c3cc4cc(C(=O)N5CCCC(O)C5)ccc4[nH]3)n[nH]c2C1` (stereo not shown) [Example 301] was 37 nM; that for `CC1(C)CCc2c(-c3cc4ccc(N5CCC(C)(CO)C5=O)cc4[nH]3)n[nH]c2C1` (stereo not shown) [Example 230] was 25 nM.

On to `CCC(=O)N(C)c1ccc2cc(-c3n[nH]c4c3CC[C@@H](C)C4)[nH]c2c1` [Example 354], for which the IC50 was 16 nM. The value for `CN(C(=O)[C@H]1CCCO1)c1ccc2cc(-c3n[nH]c4c3CCC(C)(C)C4)[nH]c2c1` [Example 140] was 2 nM. The value for `CC(C)CC(=O)N(C)c1ccc2cc(-c3n[nH]c4c3CCC(C)(C)C4)[nH]c2c1` [Example 40] was 6 nM; that for `CC1(C)CCc2c(-c3cc4ccc(N(CCO)C(=O)C5CCCO5)cc4[nH]3)n[nH]c2C1` (stereo not shown) [Example 237] was 2 nM; that for `CC1(C)CCc2c(-c3cc4ccc(NC(N)=O)cc4[nH]3)n[nH]c2C1` [Example 29] was 85 nM. The value for `CC1(C)CCc2c(-c3cc4cc(C(=O)NC(CO)CO)ccc4[nH]3)n[nH]c2C1` [Example 328] was 26 nM. In the case of `CO[C@H]1CC[C@H](C(=O)N(CCO)c2ccc3cc(-c4n[nH]c5c4CCC(C)(C)C5)[nH]c3c2)CC1` [Example 233], the 50% inhibitory concentration (IC50) is 10 nM. The value for `CC(C)CC(=O)N(CCO)c1ccc2cc(-c3n[nH]c4c3CCC(C)(C)C4)[nH]c2c1` [Example 247] was 4 nM; that for `COC1CCC(C(=O)N(C)c2ccc3cc(-c4n[nH]c5c4CCC(C)(C)C5)[nH]c3c2)CC1` (stereo not shown) [Example 74] was 4 nM. To `CCN(C(=O)CC(C)(C)O)c1ccc2cc(-c3n[nH]c4c3CCC(C)(C)C4)[nH]c2c1` [Example 290] belongs 8 nM. On to `CNC(=O)c1ccc2[nH]c(-c3n[nH]c4c3CCC(C)(C)C4)cc2c1` [Example 294], for which the IC50 is 51 nM. To `CN(C(=O)Cn1ccccc1=O)c1ccc2cc(-c3n[nH]c4c3CCC(C)(C)C4)[nH]c2c1` [Example 156] belongs below 1 nM. With `CN(C(=O)c1ccccc1)c1ccc2cc(-c3n[nH]c4c3CC(O)CC4)[nH]c2c1` (stereo not shown) [Example 367], the IC50 was 75 nM. Turning to `CC(N)C(=O)N(C)c1ccc2cc(-c3n[nH]c4c3CCC(C)(C)C4)[nH]c2c1` (stereo not shown) [Example 377], the half-maximal inhibitory concentration (IC50) is 6 nM.

In the case of `CC(O)C(=O)N(C)c1ccc2cc(-c3n[nH]c4c3CCC(C)(C)C4)[nH]c2c1` (stereo not shown) [Example 34], the IC50 was 5 nM.

As for `CCC(=O)N(C)c1ccc2cc(-c3n[nH]c4c3CC(OCc3ccccc3)C(C)(C)C4)[nH]c2c1` (stereo not shown) [Example 364], the IC50 is 45 nM. The value for `CN(C(=O)C(C)(C)N1CCOCC1)c1ccc2cc(-c3n[nH]c4c3CCC(C)(C)C4)[nH]c2c1` [Example 161] was 22 nM; that for `CC1(C)CCc2c(-c3cc4ccc(N(CCO)C(=O)C5CCOC5)cc4[nH]3)n[nH]c2C1` (stereo not shown) [Example 238] was 2 nM; that for `COC1CCN(C(C)C(=O)N(C)c2ccc3cc(-c4n[nH]c5c4CCC(C)(C)C5)[nH]c3c2)CC1` (stereo not shown) [Example 113] was 9 nM. To `CN(C(=O)CN1CC[C@@H](O)CC1=O)c1ccc2cc(-c3n[nH]c4c3CCC(C)(C)C4)[nH]c2c1` [Example 170] belongs below 1 nM; to `COCC(=O)N(C)c1ccc2cc(-c3n[nH]c4c3CC(OC)CC4)[nH]c2c1` (stereo not shown) [Example 369], 207 nM; to `COCC(C)N(C)C(=O)c1ccc2cc(-c3n[nH]c4c3CCC(C)(C)C4)[nH]c2c1` (stereo not shown) [Example 22], 40 nM. To `CN(C)CCN(C(=O)C1CCCO1)c1ccc2cc(-c3n[nH]c4c3CCC(C)(C)C4)[nH]c2c1` (stereo not shown) [Example 220] belongs below 3 nM.

Take `CN(C(=O)CCN1CCCC1=O)c1ccc2cc(-c3n[nH]c4c3CCC(C)(C)C4)[nH]c2c1` [Example 144]: the IC50 was 9 nM. The value for `CC(C)OCC(O)C(=O)N(C)c1ccc2cc(-c3n[nH]c4c3CCC(C)(C)C4)[nH]c2c1` (stereo not shown) [Example 132] was 13 nM.

In the case of `COCC(=O)N(C)c1ccc2cc(-c3n[nH]c4c3CCC(C)C4)[nH]c2c1` (stereo not shown) [Example 356], the IC50 is 9 nM. The value for `CCN(C(C)=O)c1ccc2cc(-c3n[nH]c4c3CCC(C)(C)C4)[nH]c2c1` [Example 2, N-[2-(6,6-dimethyl-4,5,6,7-tetrahydro-1H-indazol-3-yl)-1H-indol-6-yl]-N-ethylacetamide] was 5 nM. In the case of `CC1(C)CCc2c(-c3cc4ccc(N5CCCC5=O)cc4[nH]3)n[nH]c2C1` [Example 210], the IC50 was 36 nM. The value for `CC1CCc2c(-c3cc4ccc(N(C)C(=O)c5ccccc5)cc4[nH]3)n[nH]c2C1` (stereo not shown) [Example 357] was 29 nM; that for `CC(C)C(=O)N(C)c1ccc2cc(-c3n[nH]c4c3CCC(C)(C)C4)[nH]c2c1` [Example 39] was 4 nM. To `COCC1(C)CCc2c(-c3cc4ccc(N(C)C(=O)[C@H]5CC[C@@H](OC)CC5)cc4[nH]3)n[nH]c2C1` (stereo partly shown) [Example 348] belongs 8 nM; to `CN(c1ccc2cc(-c3n[nH]c4c3CCC(C)(C)C4)[nH]c2c1)C(=O)[C@H]1CC[C@@H](O)CC1` [Example 84], below 3 nM. As to `CN(C)CCNC(=O)c1ccc2[nH]c(-c3n[nH]c4c3CCC(C)(C)C4)cc2c1` [Example 323], the IC50 is 34 nM. To `CN(C(=O)[C@H]1CCCN1C)c1ccc2cc(-c3n[nH]c4c3CCC(C)(C)C4)[nH]c2c1` [Example 149] belongs 10 nM; to `CN(C(=O)COc1ccncc1)c1ccc2cc(-c3n[nH]c4c3CCC(C)(C)C4)[nH]c2c1` [Example 73], below 3 nM.

With `CC(C(=O)N(C)c1ccc2cc(-c3n[nH]c4c3CCC(C)(C)C4)[nH]c2c1)N1CCOCC1` (stereo not shown) [Example 104], the IC50 is 4 nM. To `CC(C(=O)N(C)c1ccc2cc(-c3n[nH]c4c3CCC(C)(C)C4)[nH]c2c1)C1CCOCC1` (stereo not shown) [Example 98] belongs 3 nM; to `CCN(C(=O)CO)c1ccc2cc(-c3n[nH]c4c3CCC(C)(C)C4)[nH]c2c1` [Example 206], 5 nM. For `CN(C(=O)C(C)(C)COCc1ccccc1)c1ccc2cc(-c3n[nH]c4c3CCC(C)(C)C4)[nH]c2c1` [Example 75], the IC50 was 34 nM. To `CCC(=O)N(CCO)c1ccc2cc(-c3n[nH]c4c3CCC(C)(C)C4)[nH]c2c1` [Example 209] belongs 4 nM; to `CN(C(=O)C(CO)OC1CCCC1)c1ccc2cc(-c3n[nH]c4c3CCC(C)(C)C4)[nH]c2c1` (stereo not shown) [Example 158], 5 nM. On to `CO[C@@H](C)C(=O)N(C)c1ccc2cc(-c3n[nH]c4c3CCC(C)(C)C4)[nH]c2c1` [Example 169], for which the IC50 was 3 nM. Turning to `CO[C@H]1CC[C@@H](C(=O)N(C)c2ccc3cc(-c4n[nH]c5c4CCC(C)(CO)C5)[nH]c3c2)CC1` (stereo partly shown) [Example 346], the IC50 is 5 nM. To `COCCN(c1ccc2cc(-c3n[nH]c4c3CCC(C)(C)C4)[nH]c2c1)C(=O)[C@H]1CC[C@@H](O)CC1` [Example 259] belongs 3 nM; to `CC1OCCN(CC(=O)N(C)c2ccc3cc(-c4n[nH]c5c4CCC(C)(C)C5)[nH]c3c2)C1=O` (stereo not shown) [Example 167], 1 nM; to `CCN(C(=O)CN1C(=O)COC[C@@H]1C)c1ccc2cc(-c3n[nH]c4c3CCC(C)(C)C4)[nH]c2c1` [Example 271], 3 nM.

With `C[C@@H](C(=O)N(CCO)c1ccc2cc(-c3n[nH]c4c3CCC(C)(C)C4)[nH]c2c1)N1CCOCC1` [Example 255], the IC50 was 3 nM. The value for `CC1(C)CCc2c(-c3cc4ccc(N(CCO)C(=O)C5CCCCC5)cc4[nH]3)n[nH]c2C1` [Example 239] was 5 nM.

(Values after patent US8299070B2, “Indole compounds and pharmaceutical use thereof” (Japan Tobacco Inc., priority 2009, dated 2012).)
